Measured values from patent US20110288151A1, “METHODS OF CHARACTERIZING BREAST CANCER AND IDENTIFYING TREATMENTS FOR SAME” (The Trustees of the University of Pennsylvania, priority 2008, published 2011).

Legend:
Rac [1] = assay: Rac-GTP pull-down, HRG-treated MCF-7 cells; assay type: cell-based, human; settings: HRG 100 ng/ml, 5 min, pharmacological inhibitor
Description: FIG. […] Rac-GTP levels were determined by a Rac-GTP pull-down assay of lysates of the treated cells. […]
As described above, Gβγ subunits are known to activate PI3Kγ. As Rac activation by HRG is affected by PTX as shown in Example 10, the involvement of PI3Kγ in the response was investigated.
To further investigate the role of PI3Kγ, PI3Kγ depleted MCF-7 cell lines were generated using PI3Kγ (#1 and #2) and non-target sequence (NTS) control shRNA lentiviruses (Sigma) (FIG. 16B).
To determine whether CXCR4 is involved in HRG responses, CXCR4 expression was knocked down using RNAi in MCF-7 cells. […] Such a mechanism has important implications in tumorigenesis and metastatic dissemination.

Rac1 = assay: Rac1-GTP GST pull down, HRG-treated MCF-10A cells; assay type: cell-based, human; settings: serum-starved MCF-10A cells, HRG 100 ng/ml 5 min, pretreatment (1 h; PTX 24 h)
Description: The image of the immunoblot depicts Rac1-GTP levels as determined by a GST pull down assay of serum-starved MCF-10A cells treated with HRG (100 ng/ml, 5 min), with or without pretreatment with PI3K inhibitor wortmannin, EGFR inhibitor AG1478, PI3Kγ inhibitor 5-quinoxalin-6-ylmethylene-thiazolidine-2,4-dione (1 mM, 1 h), or PTX (24 h) (FIG. 17).

P-Rex1 = P-Rex1 sub-cellular localization in MCF-7 cells (fluorescence microscopy); assay type: cell-based, human; settings: HRG 10 ng/mL 10 min, Wortmannin 1 μM, antibodies 10 μg/mL 1 hr
Description: Cells were then fixed and stained with the antibody of Example 1 to detect P-Rex1 and subject to staining with a secondary Cy2-conjugated antibody, and visualized with fluorescence microscopy. […] (FIG. 12A and FIG. 12B).
To test whether this effect of HRG on P-Rex1 localization was dependent on PI3K, MCF-7 breast cancer cells were serum starved for 48 hours, treated for 10 minutes with HRG (10 ng/mL), with or without Wortmannin (1 μM), an anti-ErbB3 blocking antibody (10 μg/mL, 1 hr) or control IgG and stained and visualized (FIG. 12B).

T-47D cells = assay: Membrane ruffles in T-47D cells; assay type: cell-based, human; settings: T-47D cells treated with HRG or EGF
Description: HRG is known to cause morphological changes, including the formation of lamellipodia and membrane ruffles.
FIG. 14E is a bar graph depicting reduced colony formation, in response to treatment with HRG (10 ng/mL), in the P-Rex1 depleted cell lines of FIG. 14A as compared to control cells.

Rac [2] = assay: Rac activation by HRG or EGF in breast cancer cell lines (GST-Raf-PBD pull-down); assay type: cell-based; settings: various breast cancer cell lines, HRG 10 ng/mL or EGF 100 ng/mL, 0-5 minutes, n=3

O=C1NC(=O)C(=Cc2ccc3nccnc3c2)S1 [5-quinoxalin-6-ylmethylene-thiazolidine-2,4-dione]
Rac activation by HRG (Rac [1]): dose-dependently reduced Rac activation by HRG
sensitivity of Rac1 activation by HRG (Rac1): insensitive

COc1cc2ncnc(Nc3cccc(Cl)c3)c2cc1OC [AG1478]
sensitivity of Rac1 activation by HRG (Rac1): blocked Rac activation

CC(C)(C)n1nc(-c2ccc(Cl)cc2)c2c(N)ncnc21 [PP2]
effect on HRG-induced P-Rex1 localization (P-Rex1): did not have such an effect

EGF: epidermal growth factor (NSDSECPLSHDGYCLHDGVCMYIEALDKYACNCVVGYIGERCQYRDLKWWELR; UniProt P01133 971-1023, looked up)
ruffle formation on ligand treatment (T-47D cells): characteristic ruffles were observed
Rac activation (Rac [2]): activate Rac
